Experimental findings from patent US20260234167A1, “SOLID STATE FORMS OF DELGOCITINIB AND PROCESS THEREOF” (ASSIA CHEMICAL INDUSTRIES LTD., priority 2023, published 2026) are described below.

What all share (type): physicochemical
Data set [1] can be described thus: Grinding experiments (strong grinding in mortar with pestle for 2 minutes), XRPD after grinding. Particulars: for XRPD after grinding: about 20 mg ground in mortar with pestle for 2 minutes. As for the experimental part: Powder X-ray Diffraction was performed on an X-Ray powder diffractometer Bruker D8 Advance; CuK radiation (λ=1.5418 Å); Lynx eye detector; laboratory temperature 22-25° C.; PMMA specimen holder ring. Prior to analysis, the samples were gently ground by means of mortar and pestle in order to obtain a fine powder. The ground sample was adjusted into a cavity of the sample holder and the surface of the sample was smoothed by means of a cover glass. Measurement parameters: Scan range: 2-40 degrees 2-theta; Scan mode: continuous; Step size: 0.05 degrees; Time per step: 0.5 s; Sample spin: 30 rpm; Sample holder: PMMA specimen holder ring with silicon low background. Samples of Delgocitinib forms according to the disclosure were subjected to strong grinding. In these experiments, about 20 mg of the sample was placed in a mortar and ground with a pestle for 2 minutes. XRPD analysis was performed on each sample after the grinding experiment (Table 4): […]

A short description of data set [2]: Stability to compression (2 tons, hydraulic press), XRPD after 2 minutes. As for the experimental part:
Powder X-ray Diffraction was performed on an X-Ray powder diffractometer Bruker D8 Advance; CuK radiation (λ=1.5418 Å); Lynx eye detector; laboratory temperature 22-25° C.; PMMA specimen holder ring. Prior to analysis, the samples were gently ground by means of mortar and pestle in order to obtain a fine powder. The ground sample was adjusted into a cavity of the sample holder and the surface of the sample was smoothed by means of a cover glass. Measurement parameters: Scan range: 2-40 degrees 2-theta; Scan mode: continuous; Step size: 0.05 degrees; Time per step: 0.5 s; Sample spin: 30 rpm; Sample holder: PMMA specimen holder ring with silicon low background. Samples of Delgocitinib were subjected to pressures of 2 tons (Atlas® Autopress hydraulic press, set to 2 tons). XRPD analysis was carried out on the samples after 2 minutes.

A short description of data set [3]: Storage stability at different relative humidities and temperatures in packed bags, XRPD after 1, 2, 3 and 6 months. The protocol: Powder X-ray Diffraction was performed on an X-Ray powder diffractometer Bruker D8 Advance; CuK radiation (λ=1.5418 Å); Lynx eye detector; laboratory temperature 22-25° C.; PMMA specimen holder ring. Prior to analysis, the samples were gently ground by means of mortar and pestle in order to obtain a fine powder. The ground sample was adjusted into a cavity of the sample holder and the surface of the sample was smoothed by means of a cover glass.
Measurement parameters: Scan range: 2-40 degrees 2-theta; Scan mode: continuous; Step size: 0.05 degrees; Time per step: 0.5 s; Sample spin: 30 rpm; Sample holder: PMMA specimen holder ring with silicon low background.
Samples of Delgocitinib polymorph forms according to the disclosure were subjected to conditions of different relative humidities at different temperatures. Forms DL1 was kept in low-density polyethylene bag (twist and tied) covered by triple laminated bag (heat and sealed). Forms DL2, DL3, DL10 and DL11 were kept in low-density polyethylene bag (twist and tied) and covered by triple laminated bag (heat and sealed), while 2 gram silica gel sachet was added in between the two bags.

The nature of data set [4]: Storage stability at different relative humidities at ambient temperature, XRPD after 7 days. Particulars: for XRPD after storage at different relative humidities for 7 days: ambient temperature. As for the experimental part: Powder X-ray Diffraction was performed on an X-Ray powder diffractometer Bruker D8 Advance; CuK radiation (λ=1.5418 Å); Lynx eye detector; laboratory temperature 22-25° C.; PMMA specimen holder ring. Prior to analysis, the samples were gently ground by means of mortar and pestle in order to obtain a fine powder. The ground sample was adjusted into a cavity of the sample holder and the surface of the sample was smoothed by means of a cover glass. Measurement parameters: Scan range: 2-40 degrees 2-theta; Scan mode: continuous; Step size: 0.05 degrees; Time per step: 0.5 s; Sample spin: 30 rpm; Sample holder: PMMA specimen holder ring with silicon low background. Samples of crystalline forms of Delgocitinib according to the disclosure, were subjected to conditions of different relative humidities at ambient temperature. XRPD analysis was performed on the samples after 7 days.

In the case of `C[C@H]1CN(C(=O)CC#N)[C@]12CCN(c1ncnc3[nH]ccc13)C2` [Form DL1, 3-[(3S,4R)-3-methyl-7-(7H-pyrrolo[2,3-d]pyrimidin-4-yl)-1,7-diazaspiro[3.4]octan-1-yl]-3-oxopropanenitrile], in data set [1] (listed as DL1), the XRPD after grinding result is listed as “DL1”. Besides, in data set [1] (strong grinding, 2 minutes), the “Resistance to polymorphic changes on grinding (conclusion in words)” value is on record as “resistant to polymorphic changes”. The “XRPD after compression force (2 tons for 2 minutes)” value (shortened to “XRPD after compression force”) in data set [2] (listed as DL1) is listed as “DL1”. The “Stability under high pressure conditions (conclusion in words)” value in data set [2] (2 tons, 2 minutes) is recorded as “stable under high pressure conditions”. Also, the “XRPD after storage at 25° C. at 60% RH” value in data set [3] (1 month, listed as DL1) is “DL1”; in data set [3] (2 months, listed as DL1), “DL1”; in data set [3] (3 months, listed as DL1), “DL1”; in data set [3] (6 months, listed as DL1) it was “DL1”. Further, the “Storage stability (conclusion in words)” value in data set [3] (25° C./60% RH and 40° C./75% RH, up to 6 months) is recorded as “highly storage stable”. Moreover, the “XRPD after storage at 40° C. at 75% RH” value is “DL1” in data set [3] (1 month, listed as DL1); “DL1” in data set [3] (2 months, listed as DL1); “DL1” in data set [3] (3 months, listed as DL1); “DL1” in data set [3] (6 months, listed as DL1). Moreover, the “XRPD after storage at different relative humidities for 7 days” value in data set [4] (20% relative humidity, listed as DL1) is listed as “DL1”; in data set [4] (40% relative humidity, listed as DL1), “DL1”; in data set [4] (60% relative humidity, listed as DL1), “DL1”; in data set [4] (80% relative humidity, listed as DL1) it was “DL1”. For the same compound, the “Stability after exposure to high and low relative humidity conditions (conclusion in words)” value in data set [4] (20-80% relative humidity, at least 7 days) is given as “stable”.
`C[C@H]1CN(C(=O)CC#N)[C@]12CCN(c1ncnc3[nH]ccc13)C2` [Form DL2, 3-[(3S,4R)-3-methyl-7-(7H-pyrrolo[2,3-d]pyrimidin-4-yl)-1,7-diazaspiro[3.4]octan-1-yl]-3-oxopropanenitrile]: in data set [1] (listed as DL2), the XRPD after grinding entry is recorded as “DL2”. Also, in data set [2] (listed as DL2), the “XRPD after compression force” value was “DL2”. The “XRPD after storage at 25° C. at 60% RH” value was “DL2” in data set [3] (1 month, listed as DL2); “DL2” in data set [3] (2 months, listed as DL2); “DL2” in data set [3] (3 months, listed as DL2); “DL2” in data set [3] (6 months, listed as DL2). For the same compound, the “XRPD after storage at 40° C. at 75% RH” value in data set [3] (1 month, listed as DL2) is listed as “DL2”; in data set [3] (2 months, listed as DL2), “DL2”; in data set [3] (3 months, listed as DL2) it was “DL2”; in data set [3] (6 months, listed as DL2) it was “DL2”. Also, the “XRPD after storage at different relative humidities for 7 days” value is “DL2” in data set [4] (20% relative humidity, listed as DL2); “DL2” in data set [4] (40% relative humidity, listed as DL2); “DL2” in data set [4] (60% relative humidity, listed as DL2); “DL2” in data set [4] (80% relative humidity, listed as DL2).
As for `C[C@H]1CN(C(=O)CC#N)[C@]12CCN(c1ncnc3[nH]ccc13)C2` [Form DL3, 3-[(3S,4R)-3-methyl-7-(7H-pyrrolo[2,3-d]pyrimidin-4-yl)-1,7-diazaspiro[3.4]octan-1-yl]-3-oxopropanenitrile], the XRPD after grinding entry in data set [1] (listed as DL3) is on record as “DL3”. For the same compound, the “XRPD after compression force” value in data set [2] (listed as DL3) is “DL3”. For the same compound, the “XRPD after storage at 25° C. at 60% RH” value was “DL3” in data set [3] (1 month, listed as DL3); “DL3” in data set [3] (2 months, listed as DL3); “DL3” in data set [3] (3 months, listed as DL3); “DL3” in data set [3] (6 months, listed as DL3). For the same compound, the “XRPD after storage at 40° C. at 75% RH” value in data set [3] (1 month, listed as DL3) is “DL3”; in data set [3] (2 months, listed as DL3), “DL3”; in data set [3] (3 months, listed as DL3) it was “DL3”; in data set [3] (6 months, listed as DL3), “DL3”. Besides, the “XRPD after storage at different relative humidities for 7 days” value in data set [4] (20% relative humidity, listed as DL3) is given as “DL3”; in data set [4] (40% relative humidity, listed as DL3), “DL3”; in data set [4] (60% relative humidity, listed as DL3) it was “DL3”; in data set [4] (80% relative humidity, listed as DL3), “DL3”.
With `C[C@H]1CN(C(=O)CC#N)[C@]12CCN(c1ncnc3[nH]ccc13)C2` [Form DL10, 3-[(3S,4R)-3-methyl-7-(7H-pyrrolo[2,3-d]pyrimidin-4-yl)-1,7-diazaspiro[3.4]octan-1-yl]-3-oxopropanenitrile], the XRPD after grinding entry in data set [1] (listed as DL10) is recorded as “DL10”. Moreover, the “XRPD after compression force” value in data set [2] (listed as DL10) is “DL10”. Moreover, the “XRPD after storage at 25° C. at 60% RH” value in data set [3] (1 month, listed as DL10) is recorded as “DL10”; in data set [3] (2 months, listed as DL10), “DL10”; in data set [3] (3 months, listed as DL10), “DL10”; in data set [3] (6 months, listed as DL10), “DL10”. Besides, the “XRPD after storage at 40° C. at 75% RH” value in data set [3] (1 month, listed as DL10) is “DL10”; in data set [3] (2 months, listed as DL10), “DL10”; in data set [3] (3 months, listed as DL10), “DL10”; in data set [3] (6 months, listed as DL10) it was “DL10”. For the same compound, the “XRPD after storage at different relative humidities for 7 days” value in data set [4] (20% relative humidity, listed as DL10) is “DL10”; in data set [4] (40% relative humidity, listed as DL10), “DL10”; in data set [4] (60% relative humidity, listed as DL10), “DL10”; in data set [4] (80% relative humidity, listed as DL10), “DL10”.
